Each structure is given as a SMILES string.

Results on 14 compounds are retold here after patent publication US10131644B2, “Aryl sultam derivatives as RORc modulators” (Genentech, Inc., priority 2014, dated 2018).

The test addresses T1, RORc (Homo sapiens, UniProt P51449).
T1 sequence (P51449 269-508 limits assumed): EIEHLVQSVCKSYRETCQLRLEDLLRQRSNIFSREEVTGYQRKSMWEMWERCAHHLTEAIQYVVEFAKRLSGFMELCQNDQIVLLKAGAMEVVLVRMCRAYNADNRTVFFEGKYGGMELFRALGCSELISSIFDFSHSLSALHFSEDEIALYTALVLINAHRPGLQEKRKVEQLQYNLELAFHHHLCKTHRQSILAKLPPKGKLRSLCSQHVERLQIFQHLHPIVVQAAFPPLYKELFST
The test can be described thus: In vitro RORc ligand binding assay (25-[3H]hydroxycholesterol displacement). As to conditions: IC50, IC50 values for RORc; unit inferred.
As usually defined, the IC50 is the point on the concentration scale where inhibition reaches its midpoint. A high value points to a need for much substance. With `C[C@H]1CC[C@H](c2ccccc2)S(=O)(=O)N1Cc1ccc(C2(C(=O)NCCN)CCOCC2)cc1F` [Compound 52, N-(2-aminoethyl)-4-[3-fluoro-4-[[(3S,6R)-3-methyl-1,1-dioxo-6-phenyl-thiazinan-2-yl]methyl]phenyl]tetrahydropyran-4-carboxamide], the IC50 is 480 nM.
As for `C[C@H]1CC[C@@H](c2ccccc2)S(=O)(=O)N1Cc1ccc(C2(C(=O)NCCO)CCOCC2)cc1F` [Compound 47, 4-(3-fluoro-4-(((3S,6S)-3-methyl-1,1-dioxido-6-phenyl-1,2-thiazinan-2-yl)methyl)phenyl)-N-(2-hydroxyethyl)tetrahydro-2H-pyran-4-carboxamide], the half-maximal inhibitory concentration (IC50) came out at 991 nM.
For `C[C@H]1CC[C@H](c2ccccc2)S(=O)(=O)N1Cc1ccc(C2(C#N)CC(F)(F)C2)cc1F` [Compound 165, 3,3-difluoro-1-[3-fluoro-4-[[(3S,6R)-3-methyl-1,1-dioxo-6-phenyl-thiazinan-2-yl]methyl]phenyl]cyclobutanecarbonitrile] the value was 52.2 nM; for `CC(=O)N1CCC(C(N)=O)(c2cc(F)c(CN3[C@@H](C)CC[C@H](c4ccccc4)S3(=O)=O)cc2F)CC1` [Compound 149, 1-acetyl-4-[2,5-difluoro-4-[[(3S,6R)-3-methyl-1,1-dioxo-6-phenyl-thiazinan-2-yl]methyl]phenyl]piperidine-4-carboxamide], 11.4 nM; for `CC(=O)N1CC(OCC(O)CO)(c2cc(F)c(CN3[C@@H](C)CC[C@H](c4ccccc4)S3(=O)=O)cc2F)C1` (stereo partly drawn) [Compound 143, 1-[3-[2,5-difluoro-4-[[(3S,6R)-3-methyl-1,1-dioxo-6-phenyl-thiazinan-2-yl]methyl]phenyl]-3-(2,3-dihydroxypropoxy)azetidin-1-yl]ethanone], 29.8 nM.
The compound `CCOC(=O)CCC1(c2cc(F)c(CN3[C@@H](C)CC[C@H](c4ccccc4)S3(=O)=O)cc2F)CC1` [Compound 140, ethyl 3-[1-[2,5-difluoro-4-[[(3S,6R)-3-methyl-1,1-dioxo-6-phenyl-thiazinan-2-yl]methyl]phenyl]cyclopropyl]propanoate] showed an IC50 of 45.7 nM.
The result for `C[C@H]1CC[C@H](c2ccccc2)S(=O)(=O)N1Cc1ccc(C2(NCC(N)=O)CCOCC2)cc1F` [Compound 163, 2-[[4-[3-fluoro-4-[[(3S,6R)-3-methyl-1,1-dioxo-6-phenyl-thiazinan-2-yl]methyl]phenyl]tetrahydropyran-4-yl]amino]acetamide] reads 3.2 nM.
The result for `C[C@H]1CC[C@H](c2ccccc2)S(=O)(=O)N1Cc1ccc(C2(CC(N)=O)CCOCC2)cc1F` [Compound 89, 2-[4-[3-fluoro-4-[[(3S,6R)-3-methyl-1,1-dioxo-6-phenyl-thiazinan-2-yl]methyl]phenyl]tetrahydropyran-4-yl]acetamide] reads 376 nM; that for `C[C@H]1CC[C@H](c2ccccc2)S(=O)(=O)N1Cc1cc(F)c(C2(OCC(N)=O)CCOCC2)cc1F` [Compound 150, 2-[4-[2,5-difluoro-4-[[(3S,6R)-3-methyl-1,1-dioxo-6-phenyl-thiazinan-2-yl]methyl]phenyl]tetrahydropyran-4-yl]oxyacetamide], 6.1 nM; that for `C[C@H]1CC[C@H](c2ccccc2)S(=O)(=O)N1Cc1ccc(C2(CO)CCOCC2)cc1F` [Compound 68, [4-[3-fluoro-4-[[(3S,6R)-3-methyl-1,1-dioxo-6-phenyl-thiazinan-2-yl]methyl]phenyl]tetrahydropyran-4-yl]methanol], 38.5 nM.
The compound `C[C@H]1CC[C@H](c2ccccc2)S(=O)(=O)N1Cc1ccc(C2(CCO)CCOCC2)cc1F` [Compound 78, 2-[4-[3-fluoro-4-[[(3S,6R)-3-methyl-1,1-dioxo-6-phenyl-thiazinan-2-yl]methyl]phenyl]tetrahydropyran-4-yl]ethanol] yielded a concentration for half-maximal inhibition (IC50) of 13.7 nM.
For `C[C@H]1CC[C@H](c2ccccc2)S(=O)(=O)N1Cc1ccc(C2(CCC#N)COC2)cc1F` [Compound 159] the value was 77.1 nM.
Take `COCC1(c2ccc(CN3[C@@H](C)CC[C@H](c4ccccc4)S3(=O)=O)c(F)c2)CCOCC1` [Compound 90, (3S,6R)-2-[[2-fluoro-4-[4-(methoxymethyl)tetrahydropyran-4-yl]phenyl]methyl]-3-methyl-6-phenyl-thiazinane 1,1-dioxide]: the IC50 is 67 nM.
The result for `CCNC(=O)C1(c2ccc(CN3[C@@H](C)CC[C@H](c4ccccc4)S3(=O)=O)c(F)c2)CCOCC1` [Compound 51, N-ethyl-4-[3-fluoro-4-[[(3S,6R)-3-methyl-1,1-dioxo-6-phenyl-thiazinan-2-yl]methyl]phenyl]tetrahydropyran-4-carboxamide] reads 147 nM.
